Measured values from US8058475B2, “Substituted cyclohexylmethyl compounds” (Gruenenthal GmbH, priority 2005, dated 2011).
Read-outs that look alike come from different tables or passages of the source.

Target: human μ-opiate receptor (Homo sapiens, UniProt P35372)
Assay: Affinity for the human μ-opiate receptor ([3H]-naloxone displacement, SPA, CHO-K1 membrane preparation)
Type: binding
Conditions: for inhibition at 1 µM: read-out: μ-Opioid receptor, % inhibition [1 μM]; for Ki: read-out: μ-Opioid receptor, Ki
[1] = 1 μM test substance, inhibition of specific [3H]-naloxone binding

human μ-opiate receptor, sequence (P35372 whole entry): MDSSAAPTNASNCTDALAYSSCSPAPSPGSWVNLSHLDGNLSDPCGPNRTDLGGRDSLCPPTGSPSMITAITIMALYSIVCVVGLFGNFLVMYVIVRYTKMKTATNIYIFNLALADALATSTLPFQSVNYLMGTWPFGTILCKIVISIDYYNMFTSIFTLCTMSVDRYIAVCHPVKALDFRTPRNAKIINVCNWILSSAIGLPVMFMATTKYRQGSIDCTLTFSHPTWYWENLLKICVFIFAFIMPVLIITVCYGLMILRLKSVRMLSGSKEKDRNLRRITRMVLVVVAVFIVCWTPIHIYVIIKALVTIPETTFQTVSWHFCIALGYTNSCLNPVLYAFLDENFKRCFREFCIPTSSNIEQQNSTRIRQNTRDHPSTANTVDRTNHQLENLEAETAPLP

Compound | inhibition at 1 µM [%] | Ki [nM] | μ-Opioid receptor, % inhibition [1 μM] [1] [%] | inhibition at 1 µM [1] [%] | μ-Opioid receptor, % inhibition [1 μM] [%]
CCC(C(=O)NCCC1CCC(C(c2cccs2)N(C)C)CC1)c1ccccc1 (stereo not drawn) [compound 456, N-{2-[4-(dimethylamino-thiophen-2-yl-methyl)-cyclohexyl]-ethyl}-2-phenyl-butyramide] | 96 | 23 |  |  | 
COc1ccc(C(=O)NC2CCC(C(c3cccs3)N(C)C)CC2)c(OC)c1 (stereo not drawn) [compound 202, N-[4-(dimethylamino-thiophen-2-yl-methyl)-cyclohexyl]-2,4-dimethoxy-benzamide] | 94 | 31 |  |  | 
CN(C)C(c1cccs1)C1CCC(NC(=O)c2cccnc2Sc2ccc(Cl)cc2)CC1 (stereo not drawn) [compound 218, 2-(4-chloro-phenylsulfanyl)-N-[4-(dimethylamino-thiophen-2-yl-methyl)-cyclohexyl]-nicotinamide] | 89 |  |  |  | 
CN(C)C(CCc1ccccc1)C1CCC(NC(=O)c2ccc(F)cc2)CC1 (stereo not drawn) [compound 258, N-[4-(1-dimethylamino-3-phenyl-propyl)-cyclohexyl]-4-fluoro-benzamide] | 79 | 68 |  |  | 
CN(C)C(c1ccccc1)C1CCC(NC(=O)c2cccc(Cl)c2)CC1 (stereo not drawn) [compound 187, 3-chloro-N-[4-(dimethylamino-phenyl-methyl)-cyclohexyl]-benzamide] | 100 | 8.5 |  |  | 
Cc1cc(C(=O)NC2CCC(C(c3ccccc3)N(C)C)CC2)n(C(C)(C)C)n1 (stereo not drawn) [compound 223, 2-tert-butyl-5-methyl-2H-pyrazole-3-carboxylic acid [4-(dimethylamino-phenyl-methyl)-cyclohexyl]-amide] | 88 | 20 |  |  | 
CN(C)C(c1cccs1)C1CCC(CNC(=O)c2cccc(C#N)c2)CC1 (stereo not drawn) [compound 347, 3-cyano-N-[4-(dimethylamino-thiophen-2-yl-methyl)-cyclohexylmethyl]-benzamide] | 90 | 26 |  |  | 
CN(C)C(c1ccccc1)C1CCC(CCNC(=O)c2ccc(Cl)cc2)CC1 (stereo not drawn) [compound 405, 4-chloro-N-{2-[4-(dimethylamino-phenyl-methyl)-cyclohexyl]-ethyl}-benzamide] | 88 | 25 |  |  | 
COc1c(C(=O)NC2CCC(C(c3ccc(F)cc3)N(C)C)CC2)csc1Cl (stereo not drawn) [compound 211, 5-chloro-4-methoxy-thiophene-3-carboxylic acid {4-[dimethylamino-(4-fluoro-phenyl)-methyl]-cyclohexyl}-amide] | 92 |  |  |  | 
4-((dimethylamino)(phenyl)methyl)-1-(4-fluoro-3-methylphenyl)cyclohexanol [compound 150] |  |  | 74 |  | 
COc1cc(C(=O)NC2CCC(C(c3cccs3)N(C)C)CC2)cc(OC)c1OC (stereo not drawn) [compound 212, N-[4-(dimethylamino-thiophen-2-yl-methyl)-cyclohexyl]-3,4,5-trimethoxy-benzamide] | 91 | 19 |  |  | 
CN(C)C(c1ccccc1)C1CCC(CNC(=O)c2cccnc2Cl)CC1 (stereo not drawn) [compound 355, 2-chloro-N-[4-(dimethylamino-phenyl-methyl)-cyclohexylmethyl]-nicotinamide] | 86 | 120 |  |  | 
CN(C)C(c1ccc(Cl)cc1)C1CCC(O)(c2ccc(F)cc2)CC1 (stereo not drawn) [compound 162, 4-[(4-chloro-phenyl)-dimethylamino-methyl]-1-(4-fluoro-phenyl)-cyclohexanol] |  |  |  | 59 | 
CN(C)C(c1ccccc1)C1CCC(NC(=O)c2cccc(Br)c2)CC1 (stereo not drawn) [compound 197, 3-bromo-N-[4-(dimethylamino-phenyl-methyl)-cyclohexyl]-benzamide] | 96 | 16 |  |  | 
CN(C)C(c1cccc(F)c1)C1CCC(CNC(=O)Cc2cccs2)CC1 (stereo not drawn) [compound 343, N-{4-[dimethylamino-(3-fluoro-phenyl)-methyl]-cyclohexylmethyl}-2-thiophen-2-yl-acetamide] | 90 |  |  |  | 
CN(C)C(c1ccccc1)C1CCC(CNC(=O)c2cccc(C(F)(F)F)c2)CC1 (single isomer, unassigned) [compound 326, N-[4-(dimethylamino-phenyl-methyl)-cyclohexylmethyl]-3-trifluoromethyl-benzamide] | 94 | 11 |  |  | 
CCC(C(=O)NCCC1CCC(C(c2ccc(Cl)cc2)N(C)C)CC1)c1ccccc1 (stereo not drawn) [compound 455, N-(2-{4-[(4-chloro-phenyl)-dimethylamino-methyl]-cyclohexyl}-ethyl)-2-phenyl-butyramide] | 81 | 69 |  |  | 
CN(C)C(c1cccs1)C1CCC(CCNC(=O)c2ccccc2Cl)CC1 (stereo not drawn) [compound 425, 2-chloro-N-{2-[4-(dimethylamino-thiophen-2-yl-methyl)-cyclohexyl]-ethyl}-benzamide] | 94 | 6 |  |  | 
CN(C)C(c1ccccc1)C1CCC(CNC(=O)c2cccnc2Oc2ccc(Cl)cc2)CC1 (single isomer, unassigned) [compound 360, 2-(4-chloro-phenoxy)-N-[4-(dimethylamino-phenyl-methyl)-cyclohexylmethyl]-nicotinamide] | 86 | 35 |  |  | 

Compound | inhibition at 1 µM [%] | Ki [nM] | μ-Opioid receptor, % inhibition [1 μM] [1] [%] | inhibition at 1 µM [1] [%] | μ-Opioid receptor, % inhibition [1 μM] [%]
CN(C)C(c1ccccc1)C1CCC(NC(=O)c2ccc(C(C)(C)C)cc2)CC1 (stereo not drawn) [compound 217, 4-tert-butyl-N-[4-(dimethylamino-phenyl-methyl)-cyclohexyl]-benzamide] | 90 | 62 |  |  | 
CN(C)C(c1ccc(Cl)cc1)C1CCC(CCNC(=O)c2cccnc2Cl)CC1 (stereo not drawn) [compound 441, 2-chloro-N-(2-{4-[(4-chloro-phenyl)-dimethylamino-methyl]-cyclohexyl}-ethyl)-nicotinamide] | 83 | 200 |  |  | 
CN(C)C(c1ccccc1)C1CCC(NC(=O)c2csc3ccccc23)CC1 (stereo not drawn) [compound 183, benzo[b]thiophene-3-carboxylic acid [4-(dimethylamino-phenyl-methyl)-cyclohexyl]-amide] | 103 | 3.9 |  |  | 
CN(C)C(c1ccccc1)C1CCC(CCNC(=O)c2ccccc2Cl)CC1 (stereo not drawn) [compound 402, 2-chloro-N-{2-[4-(dimethylamino-phenyl-methyl)-cyclohexyl]-ethyl}-benzamide] | 96 | 7.9 |  |  | 
CCCCCC1(O)CCC(C(c2ccc(Cl)cc2)N(C)C)CC1 (stereo not drawn) [compound 169, 4-[(4-chloro-phenyl)-dimethylamino-methyl]-1-pentyl-cyclohexanol] |  |  |  | 71 | 
CCC(C(=O)NC1CCC(C(c2cccc(F)c2)N(C)C)CC1)c1ccccc1 (stereo not drawn) [compound 273, N-{4-[dimethylamino-(3-fluoro-phenyl)-methyl]-cyclohexyl}-2-phenyl-butyramide] | 75 | 81 |  |  | 
CN(C)C(c1cccs1)C1CCC(NC(=O)c2ccc(F)c(C(F)(F)F)c2)CC1 (stereo not drawn) [compound 192, N-[4-(dimethylamino-thiophen-2-yl-methyl)-cyclohexyl]-4-fluoro-3-trifluoromethyl-benzamide] | 98 | 18 |  |  | 
Cc1cc(C(=O)NC2CCC(C(c3ccccc3)N(C)C)CC2)c(C)o1 (stereo not drawn) [compound 279, 2,5-dimethyl-furan-3-carboxylic acid [4-(dimethylamino-phenyl-methyl)-cyclohexyl]-amide] | 74 | 140 |  |  | 
CN(C)C(c1cccc(F)c1)C1CCC(CCNC(=O)c2ccc(F)cc2)CC1 (stereo not drawn) [compound 409, N-(2-{4-[dimethylamino-(3-fluoro-phenyl)-methyl]-cyclohexyl}-ethyl)-4-fluoro-benzamide] | 84 | 28 |  |  | 
CN(C)C(c1cccc(F)c1)C1CCC(CCNC(=O)c2cc(F)cc(F)c2)CC1 (stereo not drawn) [compound 435, N-(2-{4-[dimethylamino-(3-fluoro-phenyl)-methyl]-cyclohexyl}-ethyl)-3,5-difluoro-benzamide] | 99 | 14 |  |  | 
COc1ccccc1C(=O)NCCC1CCC(C(c2cccc(F)c2)N(C)C)CC1 (stereo not drawn) [compound 415, N-(2-{4-[dimethylamino-(3-fluoro-phenyl)-methyl]-cyclohexyl}-ethyl)-2-methoxy-benzamide] | 99 | 5.1 |  |  | 
CN(C)C(c1ccc(F)cc1)C1CCC(CNC(=O)Cc2cccs2)CC1 (stereo not drawn) [compound 359, N-{4-[dimethylamino-(4-fluoro-phenyl)-methyl]-cyclohexylmethyl}-2-thiophen-2-yl-acetamide] | 86 |  |  |  | 
CC(Oc1ccccc1)C(=O)NCC1CCC(C(c2ccc(Cl)cc2)N(C)C)CC1 (stereo not drawn) [compound 391, N-{4-[(4-chloro-phenyl)-dimethylamino-methyl]-cyclohexylmethyl}-2-phenoxy-propionamide] | 81 | 26 |  |  | 
CN(C)C(c1ccccc1)C1CCC(NC(=O)c2ccccc2Br)CC1 (stereo not drawn) [compound 286, 2-bromo-N-[4-(dimethylamino-phenyl-methyl)-cyclohexyl]-benzamide] | 71 | 54 |  |  | 
CN(C)C(c1cccc(F)c1)C1CCC(NC(=O)Cc2ccc(Cl)cc2)CC1 (stereo not drawn) [compound 274, 2-(4-chloro-phenyl)-N-{4-[dimethylamino-(3-fluoro-phenyl)-methyl]-cyclohexyl}-acetamide] | 74 | 99 |  |  | 
CSc1ncccc1C(=O)NCC1CCC(C(c2ccc(F)cc2)N(C)C)CC1 (stereo not drawn) [compound 381, N-{4-[dimethylamino-(4-fluoro-phenyl)-methyl]-cyclohexylmethyl}-2-methyl-sulfanyl-nicotinamide] |  | 99 |  |  | 83
CN(C)C(c1ccccc1)C1CCC(NC(=O)c2cc(F)c(F)cc2F)CC1 (stereo not drawn) [compound 196, N-[4-(dimethylamino-phenyl-methyl)-cyclohexyl]-2,4,5-trifluoro-benzamide] | 96 | 19 |  |  | 
CN(C)C(c1ccc(Cl)cc1)C1CCC(O)(c2cccc(F)c2)CC1 (stereo not drawn) [compound 171, 4-[(4-chloro-phenyl)-dimethylamino-methyl]-1-(3-fluoro-phenyl)-cyclohexanol] |  |  |  | 67 | 
